In US11795439B2, “Methods for reprogramming cells and uses thereof” (GENESIS TECHNOLOGIES LIMITED, priority 2009, dated 2023):

Assays:
Assay type in all cases: cell-based, human
[1] = tested on: fibroblast cells; assay: Immunohistochemistry (Cellomics) % Sox2 and nestin positive cells with or without cytochalasin B (Table 4); settings: disrupting the cell cytoskeleton
Method: Cells were fixed with a 4% formaldehyde/PBS solution for 10 min at room temperature and subsequently permeabilized for 5 min with 0.1% Triton X-100™ in 4% formaldehyde/PBS. After two brief washes with PBS, unspecific antibody binding was blocked by a 30 min incubation with 5% normal goat serum in PBS. Then primary antibodies were added in 5% normal goat serum/PBS as follows: Mouse anti-Nestin (1:100, BD) as an […] present in neural stem cells and mouse anti-NCAM (1:100, Neuromics) as neuronal adhesion molecule. After a 2 h incubation the cells were washed 4 times for 5 min each with 0.1% Tween™/PBS. Appropriate fluorescence-tagged secondary antibody was used for visualization; Goat anti-mouse 546 (1:200, invitrogen) prepared in 5% normal goat serum/PBS was used. […] Fluorescence images were taken with a Cellomics™ ArrayScan HCS Reader microscopy system. To determine an estimate of the percentage of cells adopting neuronal or glial phenotypes, random fields were selected and for each field the total number of cells (as determined by counting Hoechst stained nuclei) and the total number of cells positive for neuronal or glial markers were determined.
Various combinations of neurogenic regulators and cytokines for epigenetic modifications were tested to ascertain their effect on reprogramming efficiency. […] Cells were then analyzed for neural stem cell markers. […]

[2] = tested on: fibroblast cells within CDM; assay: Trans-differentiation of cells within CDM by cytochalasin B, VPA, 5-Azacytidine, immunohistochemistry; settings: Day 14 CDM; cytochalasin B and NbActive medium only
Method: Fibroblast cells were cultured in DMEM medium in the presence of 10% FCS as described in Example I, followed by seeding onto 12-well plates pre-coated with laminin ([…]) at a concentration of 2×10^6 cells/ml in defined CDM Medium consisting of a 3:1 ratio of Dulbecco's modified Eagle medium (DMEM, high glucose (4.5 g/L) with L-glutamine and sodium pyruvate) and Ham's F-12 medium supplemented with the following components: EGF (4.2×10^−10M), bFGF (2.8×10^−10M), ITS (8.6×10^−5M), dexamethasone (1.0×10^−7M), L-ascorbic acid phosphate magnesium salt n-hydrate (3.2×10^−4M), L-3,3′,5-triiodothyronine (2.0×10^−10M), ethanolamine (10^−4M), GlutaMAX™ (4×10^−3M), glutathione (3.3×10^−6M), and 1% penicillin/streptomycin/amphotericin B. By culturing the fibroblast cells at hyperconfluent density in this completely chemically defined medium causes them to enter a high synthetic phase with a slow-down in proliferation, leading to the production of a living tissue equivalent (LTE) consisting of multiple layers of fibroblasts within de novo 3D extracellular matrix (CDM) that is completely synthesized by the fibroblasts themselves.
Day 14 CDM samples were treated with cytochalsin B (10 μg/ml, Calbiochem), with the concentration of cytochalsin B reduced from 10 μg/ml to 0 μg/ml (none) over 5 days while at the same time switching the medium from CDM Medium to NbActive medium. […]

[3] = tested on: HFFs; assay: Sox2 immunohistochemistry with or without Noggin; settings: inhibiting the BMP signaling pathway
Method: This study was designed to evaluate the role of Noggin in the process of de-differentiation of HFFs towards NSLCs. HFFs were cultured and treated with cytochalasin B as described in Example III. After two days of treatment, cells were transfected by Nucleofection as described in Example II with the constructed vector Msi1/Ngn2. Briefly, after preparing the cells, they were mixed with 2 μg of total DNA (Msi1/Ngn2) and were co-transfect with MBD2 ([…]), by the Amaxa's Nucleofector™ according to the manufacturer's protocol. The samples were then transferred into a Laminin (10 μg/ml, Sigma) coated culture plate and cultured in the presence of Neural Proliferation Medium (NeuroCult™ proliferation Kit, StemCell Technologies) with recombinant hFGF (20 ng/ml, Peprotech), recombinant hEGF (20 ng/ml, Peprotech), and with or without the presence of Noggin (20 ng/ml, Peprotech). Samples were collected at different time points (1, 3, 4, 6, and 8 days) to analyze neuronal gene expression by RT-PCR and protein expression levels by immunohistochemistry.
Fluorescent imunohistochemical staining was performed on samples after 4 days of transfection as previously described in Example I. Transfected cells were stained and analyzed for expression of Sox2, the percentage of Sox2 was 33.3±1.00% in the presence of Noggin compared to 27.5±0.50% without the presence of noggin at day 4. […]

C=C1[C@@H](C)[C@H]2[C@H](Cc3ccccc3)NC(=O)[C@]23OC(=O)/C=C/[C@H](O)CCC[C@@H](C)C/C=C/[C@H]3[C@@H]1O [Cytochalasin B]
effect on reprogramming [1]: significantly enhanced reprogramming, but had no reprogramming effect on its own
βIII-tubulin positive cells [2]: failed to detect

B1: Noggin: Noggin (20 ng/ml, Peprotech), inhibits the BMP signaling pathway (protein, UniProt Q13253 28-232, looked up)
Noggin: QHYLHIRPAPSDNLPLVDLIEHPDPIFDPKEKDLNETLLRSLLGGHYDPGFMATSPPEDRPGGGGGAAGGAEDLAELDQLLRQRPSGAMPSEIKGLEFSEGLAQGKKQRLSKKLRRKLQMWLWSQTFCPVLYAWNDLGSRFWPRYVKVGSCFSKRSCSVPEGMVCKPSKSVHLTVLRWRCQRRGGQRCGWIPIQYPIISECKCSC
effect on reprogramming [3]: enhanced reprogramming, but had no reprogramming effect on its own
